Measured values: patent US20100040565A1, “ACTIVE DELIVERY SYSTEMS FORMULATIONS” (Castle Beach, LLC, priority 2008, published 2010)

Assays:
[1] = type: physicochemical
Method: DEET is incorporated into the pores, if any present, and onto the surfaces of a carrier. The evaporation rate of DEET from a thin film was then measured by weight. The film was smeared onto a glass slide and its weight was measured as a function of time. The initial weight of the film was 0.0231 grams and the area that was covered was […] (thickness ca 10 microns). The weight of the film leveled off at 0.019 grams when the DEET was fully evaporated, approximately 36 hours after application. Half of the DEET, about 2 milligrams on 3 square inches, remained 16 hours after application.

[2] = Behaviour of the permethrin-on-carrier formulation on substrates (activity duration, spreading, adherence); details: permethrin trapped in porous carrier (Silcron G100) in barrier/transfer agent composition

Amount of DEET remaining ([1]; 16 h) | Time after application at which half of the DEET remained ([1]; thin film ca 10 microns on glass slide) | Time until DEET was fully evaporated from the film ([1]; thin film ca 10 microns smeared on glass slide, initial film weight 0.0231 grams, time after application) | Weight at which the film leveled off ([1]; when the DEET was fully evaporated, initial film weight 0.0231 grams) | SMILES | Activity duration of permethrin in the formulation [2]
about 2 milligrams | 16 h | approximately 36 hours | 0.019 grams | CCN(CC)C(=O)c1cccc(C)c1 [DEET] | –
– | – | – | – | CC1(C)C(C=C(Cl)Cl)C1C(=O)OCc1cccc(Oc2ccccc2)c1 (centres unmarked) [permethrin] | significantly prolonged
